In patent US20220000964A1, “Compositions and Methods for Regulating Homeostasis of Chondrocytes, Extracellular Matrix, Articular Cartilage, and Phenotype of Arthritis” (Unigen, Inc., priority 2020, published 2022):
Values joined by “and” are separate entries in the source; they are usually repeats but may differ in a detail not shown here. Equal values may be shown once. Marks after values point to notes of the source that are not given here.

Tests used:
Assay type in all cases: in vivo, rat
TNF-α = assay: CIA rats, serum TNF-α ELISA; conditions: for TNF-α: serum
Description: (§1) The presence of catabolic cytokines IL-6/TNF-α was measured using the Rat IL-6/TNF-α Quantikine ELISA kit from RandD Systems as follows: undiluted serum was added to a microplate coated with polyclonal IL-6/TNF-α antibody and allowed to bind for 2 hours at room temperature. The microplate was washed thoroughly to remove unbound serum, and then a polyclonal enzyme-conjugated IL-6/TNF-α antibody was added and allowed to bind for 2 hours at room temperature. Washing was repeated, enzyme substrate was added, and the plate was developed for 30 minutes at room temperature. After the addition of stop solution, the absorbance was read at 450 nm and the concentration of IL-6/TNF-α calculated based on the absorbance readings of an IL-6/TNF-α standard curve.

IL-6 = assay: CIA rats, serum IL-6 ELISA; conditions: for IL-6: serum
Description: as §1

IL-1β = assay: CIA rats, serum IL-1β ELISA; conditions: AMK CIA study; MTX 75 μg/kg, AMK 200 mg/kg oral
Description: The presence of catabolic cytokines IL-1β, TNF-α, or IL-6 was measured using Rat IL-1, TNF-α, and IL-6 Quantikine ELISA kit from R and D Systems (product #: RLB00 for IL-1β, RTA00 for TNF-α, and R6000B for IL-6) as follows: diluted serum was added to a microplate coated with polyclonal IL-1, TNF-α, or IL-6 antibody and allowed to bind for 2 h at room temperature. The microplate was washed thoroughly to remove unbound serum and then a polyclonal enzyme-conjugated IL-1β, TNF-α, or IL-6 antibody was added and allowed to bind for 2 h at room temperature. Washing was repeated, enzyme substrate was added, and the plate was developed for 30 min at room temperature. After the addition of stop solution, the absorbance was read at 450 nm, multiplied by dilution factor, and the concentration of IL-1β/TNF-α/IL-6 calculated based on the absorbance readings of an IL-1β/TNF-α/TL-6 standard curve.

MMP-13 = assay: CIA rats, serum MMP-13 ELISA; conditions: for MMP-13: serum
Description: The presence of cartilage degradative enzyme MMP-13 was measured using the Rat Matrix Metallo-Proteinase 13 (MMP-13) ELISA kit from Mybiosource (product #: MBS702112 for MMP-13) as follows: serum was added to a microplate coated with MMP-13 antibody and allowed to bind for 2 h at 37° C. The samples were removed and then a biotin-conjugated MMP-13 antibody was added and allowed to bind for 1 h at 37° C. The microplate was thoroughly washed, and an avidin-conjugated Horse Radish Peroxidase was added and allowed to bind for 1 h at 37° C. Enzyme substrate was then added, and the plate was developed for 30 min at 37° C. After the addition of stop solution, the absorbance was read at 450 nm, multiplied by dilution factor, and the concentration of MMP-13 calculated based on the absorbance readings of an MMP-13 standard curve
The presence of cartilage degradative enzyme MMP-13 was measured using the Rat Matrix Metalloproteinase 13 (MMP-13) ELISA kit from Mybiosource (product #: MBS702112) as follows: undiluted serum was added to a microplate coated with MMP-13 antibody and allowed to bind for 2 hours at 37° C. The samples were removed, and then a biotin-conjugated MMP-13 antibody was added and allowed to bind for 1 hour at 37° C. The microplate was thoroughly washed, and an avidin-conjugated Horse Radish Peroxidase was added and allowed to bind for 1 hour at 37° C. Enzyme substrate was then added, and the plate was developed for 30 minutes at 37° C. After the addition of stop solution, the absorbance was read at 450 nm and the concentration of MMP-13 calculated based on the absorbance readings of an MMP-13 standard curve.

[1] = system: type II collagen synthesis and degradation; assay: CIA rats, Z score of type II collagen synthesis and degradation (PIIANP, uCTX-II)
From the text: Previously, Garnero et al measured these markers [Type II collagen synthesis and degradation: N-propeptide of type IIA procollagen (PIIANP) and urine CTX-II, respectively] and correlated them to findings on radiographs and arthroscopy of OA patients. […] They explained their observation that these patients have an uncoupling effect between collagen synthesis and degradation, which is leaning more towards the progression of OA.
Adapting their method, we calculated the Z-factor for cartilage synthesis and degradation using data from PIIANP and uCTX-II, respectively. For an intervention to drive the OA catabolic progression towards anabolic or regenerative activities, the Z-score values have to come close to zero.

uCTX-II = assay: CIA rats, urinary CTX-II ELISA normalized to creatinine
Description: The presence of the cartilage degradation biomarker uCTX-II was measured using the Rat CTX-II ELISA kit from Mybiosource (product #: MBS2880519) as follows: diluted urine was added to a microplate coated with CTX-II antibody and allowed to bind for 2 h at 37° C. […] The microplate was washed thoroughly to remove unbound urine and antibody before an enzyme-conjugated avidin antibody was added to bind to the biotin-conjugated antibody for specific detection. The avidin antibody was allowed to bind for 1 h at 37° C. Washing was repeated, enzyme substrate was added, and the plate was developed for 30 min at 37° C. After the addition of stop solution, the absorbance was read at 450 nm, multiplied by dilution factor, and the concentration of CTX-II calculated based on the absorbance readings of a CTX-II standard curve. CTX-II amount was normalized to the amount of Creatinine in the urine using the Creatinine Parameter Assay Kit from R and D Systems (product #: […] Absorbance was read at 492 nm and Creatinine amount in urine was calculated based on the absorbance readings of a Creatinine standard curve.

CIA rats [2] = assay: CIA rats, paw thickness; set-up: Paw thickness (Mean): unit not given beside the values; conditions: for % Inhibition Paw thickness (AUC): vs CIA + vehicle
PIIANP = assay: CIA rats, PIIANP ELISA (synovial fluid or serum)
Description: The presence of cartilage regeneration/rebuilding biomarker PIIANP was measured using the Rat Procollagen Type IIA N-Prop (PIIANP) ELISA kit from Mybiosource (product #: MBS9399069) as follows: synovial fluid was added to a microplate coated with PIIANP antibody as well as an HRP-conjugated PIIANP antibody and allowed to bind for one hour at 37° C. The microplate was thoroughly washed, and a Chromagen solution was added and allowed to bind for 15 minutes at 37° C. After the addition of stop solution, the absorbance was read at 450 nm and the concentration of PIIANP calculated based on the absorbance readings of a PIIANP standard curve.
The level of cartilage regeneration biomarker PIIANP was measured using the Rat Procollagen Type IIA N-Prop (PIIANP) ELISA kit from Mybiosource (product #: MBS9399069) as follows: undiluted serum was added to a microplate coated with PIIANP antibody as well as an HRP-conjugated PIIANP antibody and allowed to bind for one hour at 37° C. The microplate was thoroughly washed, and a Chromagen solution was added and allowed to bind for 15 minutes at 37° C. After the addition of stop solution, the absorbance was read at 450 nm and the concentration of PIIANP calculated based on the absorbance readings of a PIIANP standard curve.

CIA rats [3] = assay: CIA rats, ankle joint histopathology (modified Mankin)
Description: For histopathological examination, the ankle joints were kept in 10% formalin for 72 h. The fixed specimens were then decalcified with Calci-Clear Rapid for one and a half days and embedded in paraffin. Standardized 5 μm serial sections were obtained at the medial and lateral section in the sagittal plane of the joint and were stained with hematoxylin and eosin (HE) and Safranin O-fast green to enable evaluation of proteoglycan content. A modified Mankin system (Mankin et al., 1971) was used to score structural and cellular alterations of joint tissues resulting from disease progression and/or treatment efficacy. The histological analysis was conducted at Nationwide Histology and slides were examined by a certified pathologist.
At necropsy, the ankle joint was carefully dissected out, fixed in 10% buffered formalin and sent to Nationwide Histology (Veradale, Wash., USA) for further histopathology analysis. The fixed specimens were then decalcified with Calci-Clear Rapid for one and a half days and embedded in paraffin. Standardized 5 m serial sections were obtained from each rat and stained with hematoxylin and eosin (HE) and Safranin O-fast green to enable evaluation of proteoglycan content. A modified Mankin system (Mankin et al., 1981) was used to score structural and cellular alterations of articular components as indications of disease progression and/or treatment efficacy. The histological analysis was conducted by a certified Pathologist at Nationwide Histology.

CIA rats [4] = assay: CIA rats, ankle diameter; set-up: Ankle diameter (Mean): unit not given here; conditions: for % Inhibition Ankle diameter (AUC): vs CIA + vehicle
[5] = AMK CIA study, MTX 75 μg/kg, AMK 200 mg/kg oral
[6] = AP CIA study, Methotrexate 0.5 mg/kg, AP 200 mg/kg oral
[7] = AP study, MTX (0.5 mg/mL), AP (200 mg/kg) oral 3 weeks
[8] = AMK study, MTX (75 μg/mL), AMK (200 mg/kg)
[9] = AMK study, MTX 75 μg/kg, AMK 200 mg/kg
[10] = AP study, MTX 0.5 mg/kg, AP 200 mg/kg
[11] = Boost, MTX 75 μg/kg, AMK 200 mg/kg
[12] = Day 9, MTX 75 μg/kg, AMK 200 mg/kg
[13] = Day 10, MTX 75 μg/kg, AMK 200 mg/kg
[14] = Day 11, MTX 75 μg/kg, AMK 200 mg/kg
[15] = Day 12, MTX 75 μg/kg, AMK 200 mg/kg
[16] = Day 13, MTX 75 μg/kg, AMK 200 mg/kg
[17] = Day 14, MTX 75 μg/kg, AMK 200 mg/kg
[18] = Day 15, MTX 75 μg/kg, AMK 200 mg/kg
[19] = Day 16, MTX 75 μg/kg, AMK 200 mg/kg
[20] = Priming, AP study, MTX 0.5 mg/kg, AP 200 mg/kg
[21] = Priming, MTX 75 μg/kg, AMK 200 mg/kg
[22] = AP study, MTX (0.5 mg/mL), AP (200 mg/kg)
[23] = score 0-6, AMK study, MTX (75 μg/mL), AMK (200 mg/kg)
[24] = score, AP study, MTX (0.5 mg/mL), AP (200 mg/kg)

## CN(Cc1cnc2nc(N)nc(N)c2n1)c1ccc(C(=O)N[C@@H](CCC(=O)O)C(=O)O)cc1 [Methotrexate]
TNF-α; [5]
  serum TNF-α inhibition compared to diseased control: 86.2%
TNF-α; [6]
  serum TNF-α level vs vehicle-treated CIA: significantly reduced
TNF-α; AMK study, AMK (200 mg/kg)
  TNF-α: 0.37 ± 1.12 pg/mL
TNF-α; [7]
  TNF-α: 10.2 ± 0.37 pg/mL
IL-6; [5]
  serum IL-6 inhibition compared to diseased control: 78.6%
IL-6; [8]
  IL-6: 10.23 ± 7.37 pg/mL
IL-6; [7]
  IL-6: 3.33 ± 6.44 pg/mL
IL-1β
  serum IL-1β inhibition compared to diseased control: 71.5%
MMP-13; [5]
  serum MMP-13 inhibition compared to vehicle-treated CIA rats: 78.6%
MMP-13; [8]
  MMP-13: 9.67 ± 1.80 pg/mL
MMP-13; [7]
  MMP-13: 86.57 ± 45.31 pg/mL
[1]; (CTX-II)-(PIIANP), Methotrexate 0.5 mg/kg (printed), AMK 200 mg/kg
  Z score, Imbalance (catabolic − anabolic), Mean ± SE: 1.30 ± 0.33
[1]; from PIIANP, SDs from mean of normal control rats, Methotrexate 0.5 mg/kg (printed), AMK 200 mg/kg
  Z score, Regeneration, Mean ± SE: −0.90 ± 0.16
[1]; from imbalance Z score
  improvement in driving OA progression to normalcy relative to vehicle treated CIA rats: 56.4%
[1]; from uCTX-II, SDs from mean of normal control rats, Methotrexate 0.5 mg/kg (printed), AMK 200 mg/kg
  Z score, Degradation, Mean ± SE: 0.39 ± 0.34
uCTX-II; [5]
  inhibition of urine CTX-II (cartilage degradation) vs vehicle-treated CIA: 26.4%
uCTX-II; urine, CIA rats, MTX 75 μg/mL (printed), AMK 200 mg/kg
  CTX-II: 2500.8 ± 355.9 ng/g creatinine
CIA rats [2]; AMK CIA study, MTX 75 μg/kg, AMK 200 mg/kg oral, area under the swelling curve
  percent reduction in paw thickness / paw edema (AUC) vs vehicle-treated CIA: 71.7%
CIA rats [2]; [9]
  AUC(d9-d21) (Mean ± SD) Paw thickness: 20.64 ± 0.21
CIA rats [2]; [6]
  percent reduction in paw thickness / paw edema (AUC) vs vehicle-treated CIA: 93.8%
CIA rats [2]; [10]
  AUC(d9-d21) (Mean ± SD) Paw thickness: 15.55 ± 0.21
CIA rats [2]; Boost, AP study, MTX 0.5 mg/kg, AP 200 mg/kg
  Paw thickness: 2.95 ± 0.06
CIA rats [2]; [11]
  Paw thickness (Mean): 3.07
CIA rats [2]; [12]
  Paw thickness (Mean): 3.12
CIA rats [2]; [13]
  Paw thickness (Mean): 3.17
CIA rats [2]; [14]
  Paw thickness (Mean): 3.32
CIA rats [2]; Day 12, AP study, MTX 0.5 mg/kg, AP 200 mg/kg
  Paw thickness: 2.99 ± 0.06
CIA rats [2]; [15]
  Paw thickness (Mean): 3.47*
CIA rats [2]; [16]
  Paw thickness (Mean): 3.53*
CIA rats [2]; Day 14, AP study, MTX 0.5 mg/kg, AP 200 mg/kg
  Paw thickness: 3.01 ± 0.03
CIA rats [2]; [17]
  Paw thickness (Mean): 3.60*
CIA rats [2]; [18]
  Paw thickness (Mean): 3.98^†
CIA rats [2]; Day 16, AP study, MTX 0.5 mg/kg, AP 200 mg/kg
  Paw thickness: 3.21 ± 0.05
CIA rats [2]; [19]
  Paw thickness (Mean): 4.32^†
CIA rats [2]; Day 17, MTX 75 μg/kg, AMK 200 mg/kg
  Paw thickness (Mean): 3.96^¥
CIA rats [2]; Day 18, AP study, MTX 0.5 mg/kg, AP 200 mg/kg
  Paw thickness: 3.25 ± 0.05
CIA rats [2]; Day 19, MTX 75 μg/kg, AMK 200 mg/kg
  Paw thickness (Mean): 3.06^¥
CIA rats [2]; Day 20, AP study, MTX 0.5 mg/kg, AP 200 mg/kg
  Paw thickness: 3.23 ± 0.06
CIA rats [2]; Day 21, MTX 75 μg/kg, AMK 200 mg/kg
  Paw thickness (Mean): 3.07^€
CIA rats [2]; [20]
  Paw thickness: 2.93 ± 0.07
CIA rats [2]; [21]
  Paw thickness (Mean): 3.06
CIA rats [2]; MTX 75 μg/kg, AMK 200 mg/kg
  % Inhibition Paw thickness (AUC): 71.71%
CIA rats [2]; MTX 0.5 mg/kg, AP 200 mg/kg
  % Inhibition Paw thickness (AUC): 93.81%
PIIANP; [5]
  increase in synovial PIIANP vs vehicle-treated CIA: 69.8%
PIIANP; [6]
  increase in serum PIIANP vs CIA + vehicle: 47%
PIIANP; serum, AP study, MTX (0.5 mg/mL), AP (200 mg/kg) oral 3 weeks
  PIIANP: 6.53 ± 1.4 ng/mL
PIIANP; synovial fluid, CIA rats, MTX 75 μg/mL (printed), AMK 200 mg/kg
  PIIANP: 0.43 ± 0.16 ng/mg
CIA rats [3]; [8]
  Bone Erosion, percent inhibition against vehicle treated disease model: (66.3%)
  Cartilage destruction, percent inhibition against vehicle treated disease model: (32.6%)
  GAG Loss, percent inhibition against vehicle treated disease model: (50.8%)
  Inflammation, percent inhibition against vehicle treated disease model: (36.0%)
CIA rats [3]; [22]
  Bone Erosion, percent inhibition against vehicle treated disease model: (100%)
  Cartilage destruction, percent inhibition against vehicle treated disease model: (98.3%)
  GAG Loss, percent inhibition against vehicle treated disease model: (94.5%)
  Inflammation, percent inhibition against vehicle treated disease model: (100%)
CIA rats [3]; [23]
  Bone Erosion (Mean ± SE): 1.13 ± 0.46
  Cartilage destruction (Mean ± SE): 2.90 ± 0.63
  GAG Loss (Mean ± SE): 2.04 ± 0.62
  Inflammation (Mean ± SE): 3.25 ± 1.02
CIA rats [3]; [24]
  Bone Erosion (Mean ± SE): 0.00 ± 0.00
  Cartilage destruction (Mean ± SE): 0.13 ± 0.05
  GAG Loss (Mean ± SD): 0.21 ± 0.17
  Inflammation (Mean ± SE): 0.00 ± 0.00
CIA rats [4]; AMK CIA study, MTX 75 μg/kg, AMK 200 mg/kg oral, AUC days 9-21
  percent reduction in ankle diameter (AUC) vs vehicle-treated CIA: 65.94% and 65.9%
CIA rats [4]; [9]
  AUC(d9-d21) (Mean ± SD) Ankle diameter: 39.11 ± 0.21
CIA rats [4]; [6]
  percent reduction in ankle diameter (AUC) vs vehicle-treated CIA: 93.6%
CIA rats [4]; [10]
  AUC(d9-d21) (Mean ± SD) Ankle diameter: 30.94 ± 0.11
CIA rats [4]; [11]
  Ankle diameter (Mean): 6.08
CIA rats [4]; [12]
  Ankle diameter (Mean): 6.12
CIA rats [4]; [13]
  Ankle diameter (Mean): 6.17
CIA rats [4]; [14]
  Ankle diameter (Mean): 6.33
CIA rats [4]; [15]
  Ankle diameter (Mean): 6.50*
CIA rats [4]; [16]
  Ankle diameter (Mean): 6.67*
CIA rats [4]; [17]
  Ankle diameter (Mean): 6.85*
CIA rats [4]; [18]
  Ankle diameter (Mean): 7.06*
CIA rats [4]; [19]
  Ankle diameter (Mean): 7.28*
CIA rats [4]; [20]
  Ankle diameter (Mean): 0.10
CIA rats [4]; [21]
  Ankle diameter (Mean): 6.03
CIA rats [4]; day 17, MTX 75 μg/kg, AMK 200 mg/kg
  Ankle diameter (Mean): 7.32*
CIA rats [4]; day 19, MTX 75 μg/kg, AMK 200 mg/kg
  Ankle diameter (Mean): 6.03†
CIA rats [4]; day 21, MTX 75 μg/kg, AMK 200 mg/kg
  Ankle diameter (Mean): 6.08†
CIA rats [4]; MTX 75 μg/kg, AMK 200 mg/kg
  % Inhibition Ankle diameter (AUC): 65.94%
CIA rats [4]; MTX 0.5 mg/kg, AP 200 mg/kg
  % Inhibition Ankle diameter (AUC): 93.59%
